Results taken from patent US12017992B2, “Compounds for modulating mitochondrial function” (Mayo Foundation for Medical Education and Research, priority 2015, dated 2024).
Where “and” joins values, the source holds several entries; their conditions need not be identical. Equal entries are not always repeated. Entries after “also recorded” stand apart in the source; their conditions may differ. Where two headings read alike, the source gives them in different places.

Key:
[1] = tested on: NAD+ and NADH levels; experiment: NAD+ and NADH levels in primary embryonic cortical neurons (NAD+/NADH-GLO assay); assay type: cell-based, mouse; conditions: among C687-C695; 100 nM, 2 μM and 5 μM
Experimental: FIGS. 14A and 14B are graphs plotting NAD^+ and NADH levels (FIG. 14A) or the NAD^+/NADH ratio (FIG. 14B) in primary embryonic cortical neurons after treatment with the indicated compounds. Neurons were seeded on 96-well plates at 30,000 cells per well. Seven days later, cells were treated with each compound at 2 μM. NAD^+ and NADH levels were measured 24 hours later using the bioluminescent NAD^+/NADH-GLO assay (Promega; Madison, WI). NAD^+ and NADH levels are expressed as a percent of vehicle treated (control) cells (FIG. 14A). All experiments were performed in 6 replicates.
FIGS. 18A-18C are graphs plotting the level of NAD+ (FIG. 18A), the level of NADH (FIG. 18B), and the ratio of NAD+/NADH (FIG. 18C) in primary embryonic cortical neurons that were seeded on a 96-well plate at 30,000 cells per well and treated seven days later with the indicated compounds at concentrations 100 nM, 2 μM and 5 μM. NAD+, NADH, and NAD+/NADH ratio were measured using a bioluminescent NAD+/NADH-GLO assay (Promega). All experiments were performed in 6 replicates.

[2] = PK of C458 in mice, plasma and brain by LC-MS/MS; assay type: in vivo, mouse; conditions: for Brain Concentration / Plasma Concentration / concentration at 0.5 h / concentration at 1 h / concentration at 2 h: single mouse; for concentration at 0.5 h / concentration at 1 h / concentration at 2 h / half-life / Kp: mouse; for concentration at 0.5 h / concentration at 1 h / concentration at 2 h: 2 mg/kg
Experimental: FIG. 10 is a graph plotting the elimination rate for C458 in brain and plasma of mice treated with 2.5 mg/kg of the compound via intrafemoral vein injection. Animals were sacrificed at 30 minutes, 1 hour, and 2 hours post injection.
The feasibility of developing the C458 series was evaluated by determining the in vivo PK profile for C458. Re-synthesized C458 was administered intravenously to wild type mice at 2 mg/kg. Frozen serum and brain tissue samples were analyzed using a bioanalytical LC-MS/MS method.
A rough estimation of elimination rate and half-life of C458 was determined in vivo by delivering a dose of 2.5 mg/kg to each mouse via intrafemoral vein injection. Each group of animals (n=2) was sacrificed at 30 minutes, 1 hour, and 2 hours post injection. Blood and brain tissue was collected, flash frozen, and the concentration of C458 was estimated using a LC-MS/MS assay with a linear calibration curve from 1 ng/ml to 1 ug/ml in both plasma and brain.
For rough estimation of elimination rate and half-life, a one-compartment model and the first rate elimination was assumed. Plotting (Ln) of concentration vs. time provided the elimination rate and half-life of C458 in plasma and the brain (FIG. 10).

[3] = In vivo toxicity and histology of C458 in WT mice; design: species or system mouse; conditions: 50 mg/kg for one month ad libitum in drinking water
Experimental: To evaluate the toxicity of C458 in vivo, 2-month old breeding WT mice were treated with 50 mg/kg of C458 via drinking water. Untreated littermates were used as controls. After one month of treatment, adult and newborn animals were sacrificed and tissue was collected for histological examination.

[4] = tested on: MC65 cells; experiment: Efficacy against Aβ toxicity in MC65 Tet on/off cells (MTT assay); assay type: cell-based; conditions: for cell protective activity in Aβ-producing MC65 cells: 2.5 μM and 5 μM, compared to CP2; for EC50: nonlinear regression
Experimental: FIGS. 4A and 4B are a pair of graphs plotting survival of MC65 cells after treatment with the indicated compounds, in the presence (Tet/off) or absence (Tet/on) of Aβ expression. MC65 cells were cultured for 72 hours in the presence (on) or absence (off) of tetracycline in OPTI-MEM media without serum. […] Cell viability was measured with an MTT assay 72 hours later. Experiments were performed in triplicates. Every 96-well plate had its own on/off control. Four experimental compounds were tested per each plate. Experiments were repeated independently twice.
(§1) FIGS. 5A and 5B are a pair of graphs plotting survival of MC65 cells after treatment with the indicated compounds, in the presence (Tet/off) or absence (Tet/on) of Aβ expression. MC65 cells were cultured for 72 hours in the presence (on) or absence (off) of tetracycline in OPTI-MEM media without serum. Cells (Tet/on and Tet/off) at the time of plating were treated every 24 hours with vehicle (0.05% final DMSO) or experimental compounds (FIG. 5A, C458-C461; FIG. 5B, C462-C465) at 2.5 μM and 5 μM. Cell viability was measured with an MTT assay 72 hours later. Experiments were performed in triplicates. Every 96-well plate had its own on/off control. Four experimental compounds were tested per each plate. Experiments were repeated independently twice.
as §1, with “FIG. 6A is” for “FIGS. 5A and 5B are”, “graph” for “pair of graphs”, “(C470-C473)” for “(FIG. 5A, C458-C461; FIG. 5B, C462-C465)”, “twice. […] Toxicity of C463 under the same experimental conditions is shown for comparison. Cells were treated with 5 μM of each compound.” for “twice.”
FIGS. 9A-9D are a series of graphs plotting the half maximal effective concentration (EC50) for each of four experimental compounds against Aβ toxicity in MC65 Tet on/off cells. FIG. 9A, C455; FIG. 9B, C458; FIG. 9C, C460; FIG. 9D, C472.
FIGS. 11A and 11B are graphs plotting survival of MC65 cells cultured for 72 hours in the presence (on; FIG. 11A) or absence (off, FIG. 11B) of tetracycline in OPTI-MEM media without serum. Cells (Tet/on and Tet/off) at the time of plating were treated with either vehicle (0.05% final DMSO) or experimental compounds at 2.5 μM every 24 hours. Cell viability was measured with an MTT assay 72 hours later. Experiments were performed in triplicate, and every 96-well plate had its own on/off control. Four experimental compounds were tested per plate. Experiments were repeated independently twice.
FIGS. 15A and 15B are graphs plotting percent survival of MC65 cells cultured in the presence of tetracycline (Tet-On) (FIG. 15A) or without tetracycline (Tet-off) (FIG. 15B) in OPTI-MEM media without serum. […] Cell viability was measured with an MTT assay 72 hours after plating. Experiments were performed in triplicate, and were repeated independently twice.
The efficacy of all 24 compounds against Aβ toxicity was evaluated in MC65 cells. […] The viability of MC65 cells expressing Aβ (Tet/off, 40% viability) or not expressing Aβ (Tet/on, 100% viability) was measured after treatment with individual compounds. Results for all 24 compounds against Aβ toxicity are presented in FIGS. 4A, 4B, 5A, 5B, 6A, and 6B.
To further characterize the efficacy of these four compounds, the half maximal effective concentration (EC50) against Aβ toxicity in MC65 cells was measured using an MTT assay. […]

[5] = tested on: ATP production; experiment: ATP levels in primary embryonic cortical neurons; assay type: cell-based, mouse; conditions: 10 nM to 5 μM, 24 hours
Experimental: FIGS. 12A and 12B are a pair of graphs plotting ATP levels in primary embryonic cortical neurons that were seeded on 96-well plates at 30,000 cells per well and treated with the indicated compounds at concentrations ranging from 10 nM to 5 μM, as indicated. ATP levels were measured 24 hours later using an ATP determination Kit (Life Technologies; Carlsbad, CA). ATP levels are expressed as a percent of vehicle treated (control) cells. All experiments were performed twice in 6 replicates.
FIG. 17 is a graph plotting ATP levels in primary embryonic cortical neurons after seeding on a 96-well plate at 30,000 cells per well and being treated seven days later with the indicated compounds at concentrations of 100 nM, 2 μM, and 5 μM. ATP levels were measured 24 hours after treatment using the bioluminescent CellTiter-GLO 2 assay (Promega, Madison, WI). All experiments were performed in 6 replicates.
To further characterize these nine new compounds, Complex I activity was measured in isolated mitochondria, and levels of ATP, NAD+, and NADH were measured in primary mouse embryonic cortical neurons (FIGS. 16-18).

[6] = Comment on salt form (Table 3); assay type: physicochemical; conditions: TFA salt
[7] = tested on: P++ MEFs (accelerated aging phenotype); experiment: Growth of P++ mouse embryonic fibroblasts (MTT assay); assay type: cell-based; conditions: 5 μM or 50 μM
From the text: (§2) FIGS. 20A-20G are a series of graphs plotting the effect of the indicated compounds on survival of various cancer cells vs. control. FIG. 20A, HeLa cervical cancer cells; FIG. 20B, Panc1 pancreatic cancer cells; FIG. 20C, P-WT: mouse embryonic fibroblasts (MEFs; control); FIG. 20D, P++: MEFs; FIG. 20E, p53−/− ms T-cell lymphoma (TCL) cells; FIG. 20F, Patu pancreatic cancer cells; FIG. 20G, Su pancreatic cancer cells.
(§3) The following […] cell lines were used: HeLa (cervical cancer, FIG. 20A); Panc1 (pancreatic cancer, FIG. 20B); P-WT MEFs (control, FIG. 20C), P++ MEFs (accelerated aging phenotype, FIG. 20D) p53−/− ms TCL (FIG. 20E); Patu (pancreatic cancer, FIG. 20F), and Su (pancreatic cancer, FIG. 20G).

[8] = tested on: cancer cell lines (HeLa, Panc1, p53−/− ms TCL, Patu, Su); experiment: Survival of cancer cell lines (MTT assay); assay type: cell-based, human; conditions: 5 μM or 50 μM, particularly at the higher dose
From the text: as §2, §3

Cc1cccc(O[C@@H]2CCC[C@H](C(C)CN(Cc3ccncc3)C(C)C)C2)c1 (stereo partly drawn) [Compound C694]
efficacy in increasing NADH and decreasing NAD+/NADH ratio [1]: highest efficacy

Cc1cccc(O[C@@H]2CCC[C@H](C(C)CN(C)Cc3ccncc3)C2)c1 (stereo partly drawn) [Compound C693]
efficacy in increasing NADH and decreasing NAD+/NADH ratio [1]: highest efficacy

Cc1cccc(O[C@@H]2CCC[C@H](C(C)CNCc3ccncc3)C2)c1 (relative stereo) [Compound C458, cis-(N-(pyridin-4-ylmethyl)-2-(3-(m-tolyloxy)cyclohexyl)propan-1-amine)]
Brain Concentration ([2]; 0.5 hr): 390 ng/g | Plasma Concentration ([2]; 0.5 hr): 41.4 ng/mL | Brain Concentration ([2]; 1 hr): 149 ng/g | Plasma Concentration ([2]; 1 hr): 15.2 ng/mL | Brain Concentration ([2]; 2 hr): 76.4 ng/g | Plasma Concentration ([2]; 2 hr): 10.3 ng/mL | bioavailability ([2]; from elimination rate and half-life in plasma and brain): good bioavailability | CNS penetration ([2]; mice, intravenous): significant CNS penetration; also recorded: penetrates the blood brain barrier and accumulates in the brain | concentration at 0.5 h ([2]; brain, intravenous, 0.5 hr, read-out: Brain Concentration): 316 ng/g | concentration at 1 h ([2]; brain, intravenous, 1 hr, read-out: Brain Concentration): 118 ng/g | concentration at 2 h ([2]; brain, intravenous, 2 hr, read-out: Brain Concentration): 68.2 ng/g | half-life ([2]; brain, intravenous, 2.5 mg/kg intrafemoral vein injection, one-compartment model, first rate elimination, read-out: estimated half-life in brain): 42 min | Kp ([2]; brain, intravenous, 2.5 mg/kg intrafemoral vein injection, read-out: concentration in the brain, times higher than in plasma): 7 to 8 | Kp ([2]; brain, iv, wild type mice, intravenously at 2 mg/kg, read-out: concentration in brain tissue, times higher (w/v) than in plasma): 7 to 10 | concentration at 0.5 h ([2]; plasma, intravenous, 0.5 hr, read-out: Plasma Concentration): 43.7 ng/mL | concentration at 1 h ([2]; plasma, intravenous, 1 hr, read-out: Plasma Concentration): 13 ng/mL | concentration at 2 h ([2]; plasma, intravenous, 2 hr, read-out: Plasma Concentration): 9.83 ng/mL | half-life ([2]; plasma, intravenous, 2.5 mg/kg intrafemoral vein injection, one-compartment model, first rate elimination, read-out: estimated half-life in plasma): 48 min | half-life ([2]; serum, iv, wild type mice, intravenously at 2 mg/kg, read-out: apparent t1/2 in the blood): 48 min | histology of adult WT mice [3]: did not cause histological abnormalities | pathology of newborn mice conceived by treated breeding WT mice [3]: no pathological abnormalities were detected | cell protective activity in Aβ-producing MC65 cells ([4]; 72 hours): promising cell protective activity | fold higher efficacy (lower EC50) of C458 than CP2 ([4]; EC50 against Aβ toxicity): 20- to 30 fold and 30 fold | fold higher efficacy of C458 than C455 and C460 ([4]; EC50 against Aβ toxicity): 100 fold | EC50 ([4]; MC65, MTT assay): ~4 nM | EC50 ([4]; MTT assay): 3.59 nM | effect on ATP production [5]: modestly reduced ATP production

Cc1cccc(O[C@@H]2CCC[C@H](C(C)CNCc3ccncc3)C2)c1 (stereo partly drawn)
Comments (salt form) [6]: Highly hygroscopic

Cc1cc2c(c(=O)o1)C=C1CCN(C(=O)Cc3cccc(O)c3)C[C@@H]1O2 [Compound C460]
cell protective activity in Aβ-producing MC65 cells ([4]; 72 hours): promising cell protective activity | efficacy against Aβ toxicity (representative images, FIG. 6B) ([4]; 5 μM, 72 hours, Tet/on and Tet/off): efficacy | effect on ATP production [5]: little or no effect | growth of P++ MEFs [7]: suppress the growth | growth of cancer cell lines [8]: suppressed growth of the cancer cell lines tested

Cc1cc2c(c(=O)o1)C=C1CCN(C(C)CCc3ccc(O)cc3)C[C@@H]1O2 (stereo partly drawn) [Compound C455]
cell protective activity in Aβ-producing MC65 cells ([4]; 72 hours): promising cell protective activity | effect on ATP production [5]: modestly reduced ATP production | growth of P++ MEFs [7]: suppress the growth | growth of cancer cell lines [8]: suppressed growth of the cancer cell lines tested
